This is an account of results in patent US9163007B2, “5-substituted indazoles as kinase inhibitors” (AbbVie Inc., priority 2007, dated 2015).

Experiment [1] concerns rats. Briefly: Sciatic nerve ligation model of neuropathic pain (Bennett). Particulars: i.p. or p.o., doses ranging from 1-150 mg/kg. In kind it is in vivo, rat. From the text: Sciatic Nerve Ligation Model of Neuropathic Pain.
As previously described in detail by Bennett and Xie (Bennett G. J.; Xie Y-K. A peripheral mononeuropathy in rat that produces disorders of pain sensation like those seen in man. Pain 1988, 33, 87-107), in anesthetized rats, a 1.5 cm incision was made 0.5 cm below the pelvis and the biceps femoris and the gluteous superficialis (right side) were separated. The sciatic nerve was exposed, isolated, and four loose ligatures (5-0 chromic catgut) with 1 mm spacing were placed around it. The rats were allowed to recover and then placed in a cage with soft bedding for 14 days before behavioral testing for mechanical allodynia as described above. In addition, animals were also tested for cold allodynia by dipping their hind paw in a cold-water bath (4.5° C.) and determining the paw withdrawal latency.

Experiment [2] has as its system rats. The experiment is described as follows: Spinal nerve (L5/L6) ligation model of neuropathic pain (Chung). Conditions: i.p. or p.o., doses ranging from 1-150 mg/kg. In kind it is in vivo, rat. From the text: Spinal Nerve (L5/L6) Ligation Model of Neuropathic Pain.
As previously described in detail by Kim and Chung (Kim S. H.; Chung J. M. An experimental model for peripheral neuropathy produced by segmental spinal nerve ligation in the rat. Pain 1992, 50, 355-363), a 1.5 cm incision was made dorsal to the lumbosacral plexus. In anesthetized rats, the paraspinal muscles (left side) were separated from the spinous processes, the L5 and L6 spinal nerves isolated, and tightly ligated with 3-0 silk threads. Following hemostasis, the wound was sutured and coated with antibiotic ointment. The rats were allowed to recover and then placed in a cage with soft bedding for 14 days before behavioral testing for mechanical allodynia.

The subject of a further experiment is HCT-116 cells. Briefly: AlamarBlue Cell Viability Assays. Particulars: Homo sapiens, treated 72 hours. The experiment is classed as cell-based. As to the method:
AlamarBlue Cell Viability Assays
HCT-116 cells (3,000/well; 96-well format) were treated for 72 hours with increasing concentrations of compounds (0.01-30 μM in half-log increments). The cells were then incubated in fresh media with 10% AlamarBlue reagent (Invitrogen #DAL1100). AlamarBlue reactions were incubated according to the manufacturer's instructions (approximately 4 hours) and then analyzed using an fmax fluorescence microplate reader (Molecular Devices) using excitation/emission wavelengths of 544/595 nm. Data were analyzed using SOFTmax PRO software provided by the manufacturer.
For orientation: Resazurin is reduced to fluorescent resorufin, in cell work by metabolically active cells.

The next experiment deals with Cdc7/Dbf4 (Homo sapiens (Human), UniProt O00311). Briefly: Cdc7 Inhibition Assay.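 Further: reaction mixtures incubated 30 min on streptavidin-coated plates, then quantified by scintillation counting, with inhibition curves fitted by non-linear regression.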 The experiment is classed as biochemical. Conditions: 11 data point; read-out: Ki (μM) 11 data point.
Experiment [3] deals with phospho-MCM2 Ser53 in HCT-116 cells. Briefly: Phospho-MCM2 ELISA. The experiment is classed as cell-based. Conditions: Homo sapiens, treated 6 hours. As for the experimental part: HCT-116 cells (20,000/well; 96-well format) were treated for 6 hours with increasing concentrations of compounds (0.01-10 μM in half-log increments). After removing the medium/inhibitor, the cells were frozen for 5 minutes and treated on ice with 20 μL of lysis buffer (Invitrogen #FNN0011) for 30 minutes. 80 μL of cold 2% BSA (in PBS) were then added to each well before transferring 80 μL to MCM2 antibody-coated plates (Bethyl #A300-122A, lot A300-122A-1). The plates were incubated overnight at 4° C., washed, and then incubated with the sandwich antibody (1:100 rabbit anti-human phospho-MCM2 Ser53; Bethyl #A300-756A, lot A300-756A-2) for 2 hours at room temperature. After another series of washes the samples are incubated for 1 hour with detection antibody (XSA-grade goat anti-rabbit-HRP, KPL #074-15-061, lot 50884, diluted to 2 μg/mL in 2% BSA). Plates were washed, developed using luminescence substrate (SuperSignal Pico for ELISA, Pierce #37069, Lot. HB101408), and read on a Molecular Devices M5 luminometer.

The test system of a further experiment is Balb/c mice. The experiment is described as follows: Murine model of acute asthma: airway hyperresponsiveness (lung resistance). The experiment is classed as in vivo, mouse. Particulars: OVA-challenged mice, 3 mg/kg orally once a day. From the text:
Murine Asthma Model of Acute Asthma
Female Balb/c mice were purchased from Taconic and housed at Abbott Bioresearch Center. Animals were utilized at 8-12 weeks of age. All protocols were approved by the Institutional Animal Care and Use Committee (IACUC). Dexamethasone (Dex), and ovalbumin (OVA) were purchased from Sigma. Endotoxin was removed from ovalbumin using DetoxiGel (Pierce) according to manufacturer's protocol and the final material contained less than 0.1 EU/mg protein. Alum Imject was purchased from Pierce.
Animals were sensitized to OVA on day 0 and 7 with an i.p. injection of 8 μg OVA in 2 mg alum. On days 14 and 16, animals received intra-nasal challenge of 0.3 μg OVA in 50 μl sterile PBS. […] All endpoints were analyzed on day 17, 24 hours after the second OVA challenge. AHR was assessed using unconscious restrained whole body plethysmography. […] Pressure in the lung and flow within the plethysmograph were measured using transducers, and lung resistance was calculated as pressure/flow using Biosystem Xa software. Baseline resistance as well as resistance following challenge with methacholine (3, 10 or 30 mg/mL) that was delivered with an inline ultrasonic-nebulizer were measured. […] Lavage fluid was analyzed for IL-13, AMCase, Muc5ac and cellular infiltrates. […]

Sequence of Cdc7/Dbf4 (O00311 whole entry): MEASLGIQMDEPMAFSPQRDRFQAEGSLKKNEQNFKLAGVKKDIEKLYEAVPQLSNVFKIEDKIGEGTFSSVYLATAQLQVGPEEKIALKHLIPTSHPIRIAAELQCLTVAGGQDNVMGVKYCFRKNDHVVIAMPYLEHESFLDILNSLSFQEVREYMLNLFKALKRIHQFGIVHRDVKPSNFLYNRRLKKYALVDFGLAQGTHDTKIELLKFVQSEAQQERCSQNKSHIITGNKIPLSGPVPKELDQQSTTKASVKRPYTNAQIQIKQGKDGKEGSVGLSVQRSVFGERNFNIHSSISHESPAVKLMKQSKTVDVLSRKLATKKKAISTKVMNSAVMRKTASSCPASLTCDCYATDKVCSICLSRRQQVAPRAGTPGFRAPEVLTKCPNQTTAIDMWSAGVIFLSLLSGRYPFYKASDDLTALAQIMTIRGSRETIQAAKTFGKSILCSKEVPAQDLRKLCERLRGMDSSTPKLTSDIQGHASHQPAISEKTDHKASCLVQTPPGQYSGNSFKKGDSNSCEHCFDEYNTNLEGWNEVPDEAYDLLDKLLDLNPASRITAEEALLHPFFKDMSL
Sequence of Cdc7/Dbf4 (Q9UBU7 whole entry partner): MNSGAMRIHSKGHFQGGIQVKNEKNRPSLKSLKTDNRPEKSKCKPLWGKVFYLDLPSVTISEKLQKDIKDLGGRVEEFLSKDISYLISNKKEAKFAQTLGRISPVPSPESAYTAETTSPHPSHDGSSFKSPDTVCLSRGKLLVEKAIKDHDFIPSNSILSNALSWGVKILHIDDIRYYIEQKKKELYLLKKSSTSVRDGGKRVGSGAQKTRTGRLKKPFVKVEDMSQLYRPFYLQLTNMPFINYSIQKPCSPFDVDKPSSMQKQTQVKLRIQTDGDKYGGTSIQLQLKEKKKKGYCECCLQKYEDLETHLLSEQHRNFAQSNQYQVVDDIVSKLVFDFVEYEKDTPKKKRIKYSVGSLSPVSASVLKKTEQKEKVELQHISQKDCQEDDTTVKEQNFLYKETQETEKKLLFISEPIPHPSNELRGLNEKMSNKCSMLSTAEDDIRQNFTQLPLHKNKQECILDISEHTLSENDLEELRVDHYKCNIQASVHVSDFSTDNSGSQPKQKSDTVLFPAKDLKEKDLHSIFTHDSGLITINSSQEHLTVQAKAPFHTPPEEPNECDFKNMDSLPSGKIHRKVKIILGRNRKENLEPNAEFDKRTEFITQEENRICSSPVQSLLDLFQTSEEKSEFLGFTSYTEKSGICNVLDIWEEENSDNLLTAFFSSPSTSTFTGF
Experimental for Cdc7/Dbf4: The reactions were incubated for 30 minutes on streptavidin-coated plates, washed, and quantified using a TopCount scintillation plate reader (Packard). IC50 values are determined via non-linear regression fitting of the data.

Turning to `O=C(N[C@H](CO)c1ccccc1)c1cc(-c2ccc3[nH]ncc3c2)on1` [Example 160, N-[(1S)-2-hydroxy-1-phenylethyl]-5-(1H-indazol-5-yl)isoxazole-3-carboxamide], the “inhibition of tactile allodynia” value with rats [1] and in the experiment on rats [2] was “greater than 30%” throughout.

For the compound `NC(=O)N(Cc1ccccc1)c1n[nH]c2ccc(-c3nnn(Cc4ccccc4)c3C3CC3)cc12` [Example 262, N-benzyl-N-[5-(1-benzyl-5-cyclopropyl-1H-1,2,3-triazol-4-yl)-1H-indazol-3-yl]urea], the EC50 (in general, the concentration needed to bring the measured effect to its halfway point) in the experiment on HCT-116 cells is 3420 nM; in experiment [3], > 10 µM. The Ki (as a rule, the equilibrium dissociation constant of an inhibitor or competing ligand from its target) at Cdc7/Dbf4 worked out at 0.041 µM.

Consider `NC(=O)N(c1ccccc1Cl)c1n[nH]c2ccc(-c3nnn(Cc4ccccc4)c3C3CC3)cc12` [Example 263, N-[5-(1-benzyl-5-cyclopropyl-1H-1,2,3-triazol-4-yl)-1H-indazol-3-yl]-N-(2-chlorophenyl)urea], for which the EC50 in the experiment on HCT-116 cells is 1040 nM; in experiment [3], > 10 µM. Moreover, on Cdc7/Dbf4, the Ki was determined as 0.022 µM.

Regarding `CCCN(C(N)=O)c1n[nH]c2ccc(-c3cn(Cc4ccccc4)nn3)cc12` [Example 319, N-[5-(1-benzyl-1H-1,2,3-triazol-4-yl)-1H-indazol-3-yl]-N-propylurea], the EC50 in the experiment with HCT-116 cells was 1560 nM; in experiment [3], > 10 µM. For the same compound, the Ki on Cdc7/Dbf4 turned out to be 0.068 µM.

`CCNC(=O)Nc1n[nH]c2ccc(-c3cn(Cc4ccccc4)nn3)cc12` [Example 322, N-[5-(1-benzyl-1H-1,2,3-triazol-4-yl)-1H-indazol-3-yl]-N′-ethylurea]: the concentration giving a half-maximal response (EC50) in the experiment on HCT-116 cells is 1530 nM; in experiment [3] it was > 10 µM. Besides, the Ki on Cdc7/Dbf4 was 0.034 µM.

Take `c1ccc(Cn2cc(-c3ccc4[nH]nc(-c5cccs5)c4c3)nn2)cc1` [Example 401, 5-(1-benzyl-1H-1,2,3-triazol-4-yl)-3-thien-2-yl-1H-indazole]: the EC50 is 6720 nM in the experiment on HCT-116 cells and > 10 µM in experiment [3]. Further, the inhibition constant (Ki) on Cdc7/Dbf4 came out at 0.00492 µM.

On to `Nc1n[nH]c2ccc(-c3nnn(Cc4ccccc4)c3CC3CCCCC3)cc12` [Example 403, 5-[1-benzyl-5-(cyclohexylmethyl)-1H-1,2,3-triazol-4-yl]-1H-indazol-3-amine], for which the EC50 in the experiment with HCT-116 cells is 8 nM; in experiment [3], > 10 µM. Further, the inhibition constant Ki on Cdc7/Dbf4 was determined as 0.0082 µM.

Regarding `Nc1n[nH]c2ccc(-c3nnn(Cc4ccccc4)c3Cc3ccccc3)cc12` [Example 405, 5-(1,5-dibenzyl-1H-1,2,3-triazol-4-yl)-1H-indazol-3-amine], the EC50 in the experiment with HCT-116 cells came to 6620 nM; in experiment [3], 3.1 µM. Also, at Cdc7/Dbf4, the inhibitory constant (Ki) amounted to 0.0011 µM.

On to `Nc1n[nH]c2ccc(-c3nnn(Cc4ccccc4)c3-c3cccs3)cc12` [Example 406, 5-(1-benzyl-5-thien-2-yl-1H-1,2,3-triazol-4-yl)-1H-indazol-3-amine], for which the concentration for a half-maximal effect (EC50) in the experiment with HCT-116 cells is 1500 nM; in experiment [3], 0.671 µM. Also, on Cdc7/Dbf4, the Ki came to 0.0005 µM.

Turning to `Nc1n[nH]c2ccc(-c3nnn(Cc4ccccc4)c3CC3CCCC3)cc12` [Example 409, 5-[1-benzyl-5-(cyclopentylmethyl)-1H-1,2,3-triazol-4-yl]-1H-indazol-3-amine], the EC50 is 13500 nM in the experiment on HCT-116 cells and > 10 µM in experiment [3]. Besides, the Ki at Cdc7/Dbf4 worked out at 0.02 µM.

`C[C@@H]1C[C@H]2[C@@H]3CCC4=CC(=O)C=C[C@]4(C)[C@@]3(F)[C@@H](O)C[C@]2(C)[C@@]1(O)C(=O)CO` [dexamethasone, Dexamethasone, reference compound] came in with a methacholine-induced airways resistance with Balb/c mice of 4.76 cm H2O/mL/sec.
